# From ChEMBL document CHEMBL4680351, “Antimicrobial and cytotoxic effects of ammonium derivatives of diterpenoids steviol and isosteviol” (Bioorg Med Chem, 2021)
# Activity calls are given as the source filed them. The calls are words filed in the database; no cut-off is given here.
# Key:
# Staphylococcus aureus [1] = test: Antibacterial activity against Staphylococcus aureus MRSA-1 assessed as bacterial growth inhibition in Mueller-Hinton broth 2 measured every 24 hrs for 5 days by serial dilution method; format: functional; details: MRSA-1, 120 h, time 5 day
# Staphylococcus aureus [2] = test: Antibacterial activity against Staphylococcus aureus MRSA-2 assessed as bacterial growth inhibition in Mueller-Hinton broth 2 measured every 24 hrs for 5 days by serial dilution method; format: functional; details: MRSA-2, 120 h, time 5 day
# Staphylococcus aureus [3] = test: Antibacterial activity against Staphylococcus aureus 209P assessed as bacterial growth inhibition in Mueller-Hinton broth 2 measured every 24 hrs for 5 days by serial dilution method; format: functional; details: 120 h, time 5 day
# Staphylococcus aureus [4] = test: Bactericidal activity against Staphylococcus aureus MRSA-1 measured every 24 hrs for 5 days by serial dilution method; format: functional; details: MRSA-1, 120 h, time 5 day
# Staphylococcus aureus [5] = test: Bactericidal activity against Staphylococcus aureus MRSA-2 measured every 24 hrs for 5 days by serial dilution method; format: functional; details: MRSA-2, 120 h, time 5 day
# Staphylococcus aureus [6] = test: Bactericidal activity against Staphylococcus aureus 209P measured every 24 hrs for 5 days by serial dilution method; format: functional; details: 120 h, time 5 day
# Staphylococcus aureus [7] = test: Antibacterial activity against Staphylococcus aureus 209P assessed as bacterial growth inhibition; format: functional
# Staphylococcus aureus [8] = test: Bacteriostatic activity against Staphylococcus aureus MRSA-2 measured every 24 hrs for 5 days by serial dilution method; format: functional, organism-based; details: time 5.0 day
# Staphylococcus aureus [9] = test: Bacteriostatic activity against Staphylococcus aureus MRSA-2 measured every 24 hrs for 5 days by serial dilution method relative to amoxicillin; format: functional; details: time 5 day
# Cell membrane [10] = test: Induction of cytoplasmic membrane damage in Staphylococcus aureus 209P assessed as crystal violet absorption at 0.7 uM after 30 mins by crystal violet staining based microplate reader analysis (reference value: […] %); format: subcellular
# Cell membrane [11] = test: Induction of cytoplasmic membrane damage in Staphylococcus aureus 209P assessed as crystal violet absorption at 1.5 uM after 30 mins by crystal violet staining based microplate reader analysis (reference value: […] %); format: subcellular
# Cell membrane [12] = test: Induction of cytoplasmic membrane damage in Staphylococcus aureus 209P assessed as crystal violet absorption at 3 uM after 30 mins by crystal violet staining based microplate reader analysis (reference value: […] %); format: subcellular
# Cell membrane [13] = test: Induction of cytoplasmic membrane damage in Staphylococcus aureus 209P assessed as crystal violet absorption at 6 uM after 30 mins by crystal violet staining based microplate reader analysis (reference value: […] %); format: subcellular
# Staphylococcus aureus [14] = test: Induction of morphological changes in Staphylococcus aureus 209P assessed as cell lysis at 3 uM by TEM analysis; format: functional, organism-based
# Staphylococcus aureus [15] = test: Induction of morphological changes in Staphylococcus aureus 209P assessed as change in cytoplasmic content at 3 uM by TEM analysis; format: functional, organism-based
# Staphylococcus aureus [16] = test: Induction of morphological changes in Staphylococcus aureus 209P assessed as cytoplasmic disintegration at 3 uM by TEM analysis; format: functional, organism-based
# Staphylococcus aureus [17] = test: Induction of morphological changes in Staphylococcus aureus 209P assessed as cell wall damage at 3 uM by TEM analysis; format: functional, organism-based
# [18] = Hemolytic activity against human erythrocytes after 1 hr by digital photoelectric colorimetric method; format: ADME, cell-based, Erythrocyte
# HeLa = test: Cytotoxicity against human HeLa cells assessed as reduction in cell viability by DAPI staining based assay
# MCF7 [19] = test: Cytotoxicity against human MCF7 cells assessed as reduction in cell viability by DAPI staining based assay; format: functional
# A549 = test: Cytotoxicity against human A549 cells assessed as reduction in cell viability by DAPI staining based assay
# HepG2 = test: Cytotoxicity against human HepG2 cells assessed as reduction in cell viability by DAPI staining based assay
# PC-3 = test: Cytotoxicity against human PC-3 cells assessed as reduction in cell viability by DAPI staining based assay
# T98G = test: Cytotoxicity against human T98G cells assessed as reduction in cell viability by DAPI staining based assay
# WI-38 = test: Cytotoxicity against human WI-38 cells assessed as reduction in cell viability by DAPI staining based assay
# [20] = Selectivity index, ratio of IC50 for human WI-38 cells to IC50 for human HeLa cells; format: toxicity; details: WI-38 cells versus HeLa cells, read-out: Ratio IC50
# [21] = Selectivity index, ratio of IC50 for human WI-38 cells to IC50 for human MCF7 cells; format: toxicity; details: WI-38 cells versus MCF7 cells, read-out: Ratio IC50
# [22] = Selectivity index, ratio of IC50 for human WI-38 cells to IC50 for human A549 cells; format: toxicity; details: WI-38 cells versus A549 cells, read-out: Ratio IC50
# [23] = Selectivity index, ratio of IC50 for human WI-38 cells to IC50 for human HepG2 cells; format: toxicity; details: WI-38 cells versus HepG2 cells, read-out: Ratio IC50
# [24] = Selectivity index, ratio of IC50 for human WI-38 cells to IC50 for human PC-3 cells; format: toxicity; details: WI-38 cells versus PC-3 cells, read-out: Ratio IC50
# [25] = Selectivity index, ratio of IC50 for human WI-38 cells to IC50 for human T98G cells; format: toxicity; details: WI-38 cells versus T98G cells, read-out: Ratio IC50
# MCF7 [26] = test: Induction of apoptosis in human MCF7 cells assessed as viable cells at 5 uM after 24 hrs by annexin V-FITC and propidium iodide staining based flow cytometry (reference value: 91.42 %); format: functional; details: read-out: Activity
# MCF7 [27] = test: Induction of apoptosis in human MCF7 cells assessed as early apoptotic cells at 5 uM after 24 hrs by annexin V-FITC and propidium iodide staining based flow cytometry (reference value: 5.03 %); format: functional
# MCF7 [28] = test: Induction of apoptosis in human MCF7 cells assessed as late apoptotic cells at 5 uM after 24 hrs by annexin V-FITC and propidium iodide staining based flow cytometry (reference value: 3.4 %); format: functional
# MCF7 [29] = test: Induction of apoptosis in human MCF7 cells assessed as dead cells at 5 uM after 24 hrs by annexin V-FITC and propidium iodide staining based flow cytometry (reference value: 0.15 %); format: functional
# MCF7 [30] = test: Induction of apoptosis in human MCF7 cells assessed as viable cells at 10 uM after 24 hrs by annexin V-FITC and propidium iodide staining based flow cytometry (reference value: 91.42 %); format: functional; details: read-out: Activity
# MCF7 [31] = test: Induction of apoptosis in human MCF7 cells assessed as early apoptotic cells at 10 uM after 24 hrs by annexin V-FITC and propidium iodide staining based flow cytometry (reference value: 5.03 %); format: functional
# MCF7 [32] = test: Induction of apoptosis in human MCF7 cells assessed as late apoptotic cells at 10 uM after 24 hrs by annexin V-FITC and propidium iodide staining based flow cytometry (reference value: 3.4 %); format: functional
# MCF7 [33] = test: Induction of apoptosis in human MCF7 cells assessed as dead cells at 10 uM after 24 hrs by annexin V-FITC and propidium iodide staining based flow cytometry (reference value: 0.15 %); format: functional
# MCF7 [34] = test: Induction of mitochondrial membrane potential loss in human MCF7 cells assessed as cell population with intact mitochondrial membrane potential at 5 uM after 24 hrs by JC-10 staining-based flow cytometric analysis (reference value: 98.73 %); format: functional
# MCF7 [35] = test: Induction of mitochondrial membrane potential loss in human MCF7 cells assessed as cell population with mitochondrial membrane potential collapse at 5 uM after 24 hrs by JC-10 staining-based flow cytometric analysis (reference value: 1.05 %); format: functional
# MCF7 [36] = test: Induction of mitochondrial membrane potential loss in human MCF7 cells assessed as cell population with intact mitochondrial membrane potential at 10 uM after 24 hrs by JC-10 staining-based flow cytometric analysis (reference value: 98.73 %); format: functional
# MCF7 [37] = test: Induction of mitochondrial membrane potential loss in human MCF7 cells assessed as cell population with mitochondrial membrane potential collapse at 10 uM after 24 hrs by JC-10 staining-based flow cytometric analysis (reference value: 1.05 %); format: functional
# MCF7 [38] = test: Induction of apoptosis in human MCF7 cells assessed as activation of caspase-9 at 5 uM after 24 hrs by fluorescence assay relative to control; format: functional
# MCF7 [39] = test: Induction of apoptosis in human MCF7 cells assessed as activation of caspase-8 at 5 uM after 24 hrs by fluorescence assay; format: functional, cell-based
# MCF7 [40] = test: Induction of apoptosis in human MCF7 cells assessed as activation of JNK at 5 uM after 24 hrs by fluorescence assay; format: functional, cell-based
# Staphylococcus aureus [41] = test: Bacteriostatic activity against Staphylococcus aureus MRSA-1 measured every 24 hrs for 5 days by serial dilution method; format: functional, organism-based
# MCF7 [42] = test: Induction of apoptosis in human MCF7 cells assessed as activation of Bad at 5 uM after 24 hrs by fluorescence assay; format: functional, cell-based
# MCF7 [43] = test: Induction of apoptosis in human MCF7 cells assessed as activation of Akt at 5 uM after 24 hrs by fluorescence assay; format: functional, cell-based
# MCF7 [44] = test: Induction of apoptosis in human MCF7 cells assessed as activation of p53 at 5 uM after 24 hrs by fluorescence assay; format: functional, cell-based
# MCF7 [45] = test: Induction of apoptosis in human MCF7 cells assessed as activation of Bcl-2 at 5 uM after 24 hrs by fluorescence assay; format: functional, cell-based
smiles,measurement,setting,value
CC1(C)S[C@@H]2[C@H](NC(=O)[C@H](N)c3ccc(O)cc3)C(=O)N2[C@H]1C(=O)O [AMOXICILLIN],MIC,Staphylococcus aureus [1],85.7 µM
same,MIC,Staphylococcus aureus [2],85.7 µM
same,MIC,Staphylococcus aureus [3],0.7 µM
same,MBC,Staphylococcus aureus [4],85.7 µM
same,MBC,Staphylococcus aureus [5],85.7 µM
same,MBC,Staphylococcus aureus [6],2.5 µM
C[C@@]12CC[C@@H]3[C@@](CC[C@H]4[C@@]3(C)CCC[C@@]4(C)C(=O)OCC[N+](C)(C)CCCCCCCCCCCC[N+](C)(C)CCOC(=O)[C@]3(C)CCC[C@@]4(C)[C@@H]5CC[C@@]6(C)C[C@]5(CC[C@@H]43)CC6=O)(CC1=O)C2.[Br-].[Br-],MIC,Staphylococcus aureus [1],2.8 µM
same,MIC,Staphylococcus aureus [2],1.4 µM
same,MIC,Staphylococcus aureus [7],0.7 µM
same,MBC,Staphylococcus aureus [4],2.8 µM
same,MBC,Staphylococcus aureus [5],1.4 µM
same,MBC,Staphylococcus aureus [6],0.7 µM
same,Activity,Staphylococcus aureus [8],Active
same,fold change (FC),Staphylococcus aureus [9],15
same,Activity,Cell membrane [10],7%
same,Activity,Cell membrane [11],13%
same,Activity,Cell membrane [12],24%
same,Activity,Cell membrane [13],63%
same,Activity,Staphylococcus aureus [14],Active
same,Activity,Staphylococcus aureus [15],Active
same,Activity,Staphylococcus aureus [16],Active
same,Activity,Staphylococcus aureus [17],Active
same,HC50 at 1 h,[18],20.3 µM
same,IC50,HeLa,22 µM
same,IC50,MCF7 [19],5 µM
same,IC50,A549,12.5 µM
same,IC50,HepG2,19.5 µM
same,IC50,PC-3,13 µM
same,IC50,T98G,39.6 µM
same,IC50,WI-38,25 µM
same,selectivity ratio,[20],1.1
same,selectivity ratio,[21],5
same,selectivity ratio,[22],2
same,selectivity ratio,[23],1.3
same,selectivity ratio,[24],1.9
same,selectivity ratio,[25],0.6
same,viability at 5 µM,MCF7 [26],29.9%
same,Activity,MCF7 [27],27.59%
same,Activity,MCF7 [28],25.95%
same,Activity,MCF7 [29],16.61%
same,viability at 10 µM,MCF7 [30],24.9%
same,Activity,MCF7 [31],41.39%
same,Activity,MCF7 [32],28.47%
same,Activity,MCF7 [33],5.24%
same,Activity,MCF7 [34],88.28%
same,Activity,MCF7 [35],11.65%
same,Activity,MCF7 [36],7.76%
same,Activity,MCF7 [37],92.1%
same,fold change (FC),MCF7 [38],>=2
same,Activity,MCF7 [39],inactive
same,Activity,MCF7 [40],Active
same,Activity,Staphylococcus aureus [41],Active
same,Activity,MCF7 [42],Active
same,Activity,MCF7 [43],Active
same,Activity,MCF7 [44],Active
same,Activity,MCF7 [45],inactive
